The first assay has as its system Ascaridia galli (L3) and Oesophagostomum dentatum (L3 and L4). Description: In vitro anthelmintic activity against larval stages of Ascaridia galli and Oesophagostomum dentatum (MEC). Particulars: Ascaridia galli, in vitro; A. galli L3, O. dentatum L3 and L4; 20 larvae per well; microscopic examination; read-out: minimum effective concentration (MEC) against one or more of the tested nematodes.
As to `Cc1ccc(N2CCN(C(=O)COC3CCC(Nc4ccc([N+](=O)[O-])c(C(F)(F)F)c4)CC3)CC2)c(C)c1` (stereo not shown) [Example 67], the minimal effective concentration is less than 1 µM.
On the same count and under the same terms, as for `O=C(COC1CCC(Nc2ccc([N+](=O)[O-])c(C(F)(F)F)c2)CC1)N1CCC(c2ccc(Cl)cc2)CC1` (stereo not shown) [Example 73], the figure is less than 1 µM; as for `N#Cc1ccc(NC2CCC(OCC(=O)N3CCN(c4ccc(Cl)cc4)CC3)CC2)cc1C(F)(F)F` (stereo not shown) [Example 88], less than 1 µM.
With `O=C(COC1CCC(Nc2ccc(OC(F)(F)F)c(C(F)(F)F)c2)CC1)N1CCN(c2ccc(Cl)cc2)CC1` (stereo not shown) [Example 90], the minimal effective concentration was less than 1 µM.
On the same count and under the same terms, as for `O=C(NCC1CCC(Nc2ccc([N+](=O)[O-])c(C(F)(F)F)c2)CC1)C1CCN(c2ccc(Cl)cc2)CC1` (stereo not shown) [Example 107], the figure is less than 7 µM; as for `CN(CC1CCC(Nc2ccc([N+](=O)[O-])c(C(F)(F)F)c2)CC1)C(=O)C1CCN(c2ccc(C(F)(F)F)cc2)CC1` (stereo not shown) [Example 111], less than 1 µM; as for `O=C(NCC1CCC(Nc2ccc([N+](=O)[O-])c(C(F)(F)F)c2)CC1)C1CCN(c2ccc(F)cc2)CC1` (stereo not shown) [Example 113], less than 7 µM.
The same measure, in the same setting: as for `CC(C)(C)c1ccc(N2CCN(CCOC3CCC(Nc4ccc([N+](=O)[O-])c(C(F)(F)F)c4)CC3)CC2)cc1` (stereo not shown) [Example 116], the figure is less than 1 µM.
On the same count and under the same terms, as for `O=[N+]([O-])c1ccc(NC2CCC(OCCN3CCN(c4ccc(C(F)(F)F)cc4)CC3)CC2)cc1C(F)(F)F` (stereo not shown) [Example 119], the figure is less than 1 µM; as for `O=C(NCC1CCN(c2ccc(C(F)(F)F)cc2)CC1)C1CCC(Nc2ccc([N+](=O)[O-])c(C(F)(F)F)c2)CC1` (stereo not shown) [Example 120], less than 1 µM; as for `CC(C)(C)c1ccc(N2CCC(CNC(=O)C3CCC(Nc4ccc([N+](=O)[O-])c(C(F)(F)F)c4)CC3)CC2)cc1` (stereo not shown) [Example 122], less than 1 µM.
Consider `Cc1ccc(N2CCC(CNC(=O)C3CCC(Nc4ccc([N+](=O)[O-])c(C(F)(F)F)c4)CC3)CC2)cc1` (stereo not shown) [Example 123], for which the minimal effective concentration was less than 1 µM.
The same measure, in the same setting: as for `CCOc1ccc(N2CCC(CNC(=O)C3CCC(Nc4ccc([N+](=O)[O-])c(C(F)(F)F)c4)CC3)CC2)cc1` (stereo not shown) [Example 125], the figure is less than 1 µM; as for `CN(CC1CCN(c2ccc(C(C)(C)C)cc2)CC1)C(=O)C1CCC(Nc2ccc([N+](=O)[O-])c(C(F)(F)F)c2)CC1` (stereo not shown) [Example 132], less than 1 µM; as for `CCOc1ccc(N2CCC(CN(C)C(=O)C3CCC(Nc4ccc([N+](=O)[O-])c(C(F)(F)F)c4)CC3)CC2)cc1` (stereo not shown) [Example 133], less than 1 µM.
Still for that read-out and setting: the result for `CN(CC1CCC(Nc2ccc([N+](=O)[O-])c(C(F)(F)F)c2)CC1)C(=O)N1CCN(c2ccc(C(C)(C)C)cc2)CC1` (stereo not shown) [Example 141] reads less than 1 µM.
Same read-out and setting: as for `CC(C)(C)c1ccc(N2CCN(C(=O)NCC3CCC(Nc4ccc([N+](=O)[O-])c(C(F)(F)F)c4)CC3)CC2)cc1` (stereo not shown) [Example 143], the figure is less than 1 µM; as for `O=C(NCC1CCC(Nc2ccc([N+](=O)[O-])c(C(F)(F)F)c2)CC1)N1CCN(c2ccc(C(F)(F)F)cc2)CC1` (stereo not shown) [Example 145], less than 1 µM; as for `O=C(COC1CCC(Nc2ccc([N+](=O)[O-])c(C(F)(F)F)c2)CC1)N1CC2CC1CN2c1ccc(C(F)(F)F)cc1` (stereo not shown) [Example 146], less than 1 µM.

The same assay, now with this note: Ascaridia galli, in vitro; A. galli L3, O. dentatum L3 and L4; 20 larvae per well; microscopic examination; read-out: minimum effective concentration (MEC) against two or more of the tested nematodes.
In the case of `N#Cc1ccc(N[C@H]2CC[C@H](OCC(=O)N3CCN(c4ccc(OCc5ccccc5)cc4)CC3)CC2)cc1C(F)(F)F` [Example 25, 4-(trans-4-{2-[4-(4-benzyloxy-phenyl)-piperazin-1-yl]-2-oxoethoxy}-cyclohexylamino)-2-trifluoromethyl-benzonitrile], the minimal effective concentration was less than 1 µM.
As to `CC(C)(C)c1ccc(N2CCN(C(=O)CO[C@H]3CC[C@H](Nc4ccc(C#N)c(C(F)(F)F)c4)CC3)CC2)cc1` [Example 27, 4-(trans-4-{2-[4-(4-tert-butyl-phenyl)-piperazin-1-yl]-2-oxo-ethoxy}-cyclohexylamino)-2-trifluoromethyl-benzonitrile], the minimal effective concentration is less than 1 µM.
Take `O=C(CC[C@H]1CC[C@H](Nc2ccc([N+](=O)[O-])c(C(F)(F)F)c2)CC1)N1CCN(c2ccc(C(F)(F)F)cc2)CC1` [Example 41, 3-(trans-4-(4-nitro-3-trifluoromethyl-phenylamino)-cyclohexyl)-1-(4-(4-trifluoromethyl-phenyl)-piperazin-1-yl)-propan-1-one]: the minimal effective concentration is less than 1 µM.
Still for that read-out and setting: as for `CC(C)(C)c1ccc(N2CCC(C(=O)NC[C@H]3CC[C@H](Nc4ccc([N+](=O)[O-])c(C(F)(F)F)c4)CC3)CC2)cc1` [Example 54, 1-(4-tert-butyl-phenyl)-N-[trans-4-(4-nitro-3-trifluoromethyl-phenylamino)-cyclohexylmethyl]-piperidine-4-carboxamide], the figure is less than 1 µM; as for `O=C(COC1CCC(Nc2ccc([N+](=O)[O-])c(C(F)(F)F)c2)CC1)N1CCN(c2ccc(Cl)cc2)CC1` (stereo not shown) [Example 63], less than 1 µM; as for `N#Cc1ccc(N2CCN(C(=O)COC3CCC(Nc4ccc([N+](=O)[O-])c(C(F)(F)F)c4)CC3)CC2)cc1C(F)(F)F` (stereo not shown) [Example 64], less than 1 µM.
`O=C(COC1CCC(Nc2ccc([N+](=O)[O-])c(C(F)(F)F)c2)CC1)N1CCN(c2ccc(F)cc2F)CC1` (stereo not shown) [Example 71]: the minimal effective concentration is less than 1 µM.
Consider `CC(C)COc1ccc(N2CCN(C(=O)COC3CCC(Nc4ccc([N+](=O)[O-])c(C(F)(F)F)c4)CC3)CC2)cc1` (stereo not shown) [Example 82], for which the minimal effective concentration was less than 1 µM.
The same measure, in the same setting: the result for `O=C(COC1CCC(Nc2ccc(Cl)c(C(F)(F)F)c2)CC1)N1CCN(c2ccc(OCc3ccccc3)cc2)CC1` (stereo not shown) [Example 97] reads less than 1 µM; that for `CC(C)(C)c1ccc(N2CCN(C(=O)COC3CCC(Nc4ccc(SC(F)(F)F)cc4)CC3)CC2)cc1` (stereo not shown) [Example 103], less than 1 µM.
Same read-out and setting: as for `O=C(NCC1CCN(c2ccc(C(F)(F)F)cc2)CC1)C1CCC(Nc2ccc([N+](=O)[O-])c(C(F)(F)F)c2)CC1` (stereo not shown) [Example 120], the figure is less than 1 µM.
Same read-out and setting: as for `CC(C)(C)c1ccc(N2CCC(CNC(=O)C3CCC(Nc4ccc([N+](=O)[O-])c(C(F)(F)F)c4)CC3)CC2)cc1` (stereo not shown) [Example 122], the figure is less than 1 µM.
As for `CN(CC1CCN(c2ccc(C(C)(C)C)cc2)CC1)C(=O)C1CCC(Nc2ccc([N+](=O)[O-])c(C(F)(F)F)c2)CC1` (stereo not shown) [Example 132], the minimal effective concentration was less than 1 µM.
On the same count and under the same terms, the result for `CCOc1ccc(N2CCC(CN(C)C(=O)C3CCC(Nc4ccc([N+](=O)[O-])c(C(F)(F)F)c4)CC3)CC2)cc1` (stereo not shown) [Example 133] reads less than 1 µM.
In the case of `CN(CC1CCN(c2ccc(Cl)cc2)CC1)C(=O)C1CCC(Nc2ccc([N+](=O)[O-])c(C(F)(F)F)c2)CC1` (stereo not shown) [Example 136], the minimal effective concentration was less than 1 µM.
In the case of `O=C(NCC1CCC(Nc2ccc([N+](=O)[O-])c(C(F)(F)F)c2)CC1)N1CCN(c2ccc(C(F)(F)F)cc2)CC1` (stereo not shown) [Example 145], the minimal effective concentration is less than 1 µM.

The assay is the same for the next values; noted with them: Ascaridia galli, read-out: minimum effective concentration (MEC) against two or more of the tested nematodes, in vitro; A. galli L3, O. dentatum L3 and L4; 20 larvae per well; microscopic examination.
`O=C(CO[C@H]1CC[C@H](Nc2ccc([N+](=O)[O-])c(C(F)(F)F)c2)CC1)N1CCN(c2ccc(OCc3ccc(C(F)(F)F)cc3)cc2)CC1` [Example 20, 2-[trans-4-(4-nitro-3-trifluoromethyl-phenylamino)-cyclohexyloxy]-1-{4-[4-(4-trifluoromethyl-benzyloxy)-phenyl]-piperazin-1-yl}-ethanone]: the minimal effective concentration was less than 1 µM.
`O=C(CO[C@H]1CC[C@H](Nc2ccc([N+](=O)[O-])c(C(F)(F)F)c2)CC1)N1CCC(c2ccc(F)cc2F)CC1` [Example 22, 1-[4-(2,4-difluoro-phenyl)-piperidin-1-yl]-2-[trans-4-(4-nitro-3-trifluoromethyl-phenylamino)-cyclohexyloxy]-ethanone]: the minimal effective concentration was less than 1 µM.

Source of the values: US8569495B2, “Anthelmintic agents and their use” (Intervet International B.V., priority 2007, dated 2013).
